IC50 data for three compounds are collected here from US20080194606A1, “Pyrazolyl-Amino-Substituted Pyrimidines and Their Use in the Treatment of Cancer” (ASTRAZENECA, priority 2005, published 2008).

Each structure is given as a SMILES string.

What is called IC50 is the concentration that inhibits the measured activity by half.

This assay concerns the target T1, human Trk A kinase (Homo sapiens, UniProt P04629).
T1 construct: HIS; made in house; host or cells: SF9 insect cells
The assay is described as follows: Trk A Assay (Alphascreen kinase assay). The class given is biochemical. The note with it: 70 μM ATP, 20 minutes, room temperature, read-out: IC50 (Trk inhibitory activity). As for the experimental part: Trk A kinase activity was measured for its ability to phosphorylate synthetic tyrosine residues within a generic polypeptide substrate using an Amplified Luminescent Proximity Assay (Alphascreen) technology (PerkinElmer, 549 Albany Street, Boston, Mass.).
To measure Trk A kinase activity, the intracellular domain of a HIS-tagged human Trk A kinase (amino acids 442-796 of Trk A, Swiss-Prot Primary Accession Number P04629) was expressed in SF9 cells and purified using standard nickel column chromatography. After incubation of the kinase with a biotinylated substrate and adenosine triphosphate (ATP) for 20 minutes at room temperature, the kinase reaction was stopped by the addition of 30 mM ethylenediaminetetraacetic acid (EDTA). The reaction was performed in 384 well microtitre plates and the reaction products were detected with the addition of strepavidin coated Donor Beads and phosphotyrosine-specific antibodies coated Acceptor Beads using the EnVision Multilabel Plate Reader after an overnight incubation at room temperature.
Background: Alpha assays give light when donor and acceptor beads are brought close together.

T1 sequence (P04629 442-796): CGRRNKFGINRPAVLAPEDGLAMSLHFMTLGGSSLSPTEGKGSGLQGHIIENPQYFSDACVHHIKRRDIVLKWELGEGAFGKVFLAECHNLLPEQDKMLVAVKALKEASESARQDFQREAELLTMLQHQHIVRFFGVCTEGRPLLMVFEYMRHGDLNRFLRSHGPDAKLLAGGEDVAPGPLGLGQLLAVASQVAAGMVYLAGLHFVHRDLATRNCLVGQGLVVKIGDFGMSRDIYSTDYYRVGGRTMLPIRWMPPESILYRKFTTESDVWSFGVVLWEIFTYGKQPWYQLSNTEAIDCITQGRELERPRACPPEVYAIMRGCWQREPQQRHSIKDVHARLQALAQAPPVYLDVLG

Consider `Cc1cnc(Nc2cc(C3CC3)[nH]n2)nc1N[C@@H](CO)c1ccc(F)cc1` [Example 5, (2R)-2-({2-[(5-Cyclopropyl-1H-pyrazol-3-yl)amino]-5-methylpyrimidin-4-yl}amino)-2-(4-fluorophenyl)ethanol], for which the half-inhibitory concentration (IC50) amounted to 106 nM. In the case of `Cc1cc(Nc2ncc(Cl)c(N[C@@H](CO)c3ccc(F)cc3)n2)n[nH]1` [Example 7, (2R)-2-({5-Chloro-2-[(5-methyl-1H-pyrazol-3-yl)amino]pyrimidin-4-yl}amino)-2-(4-fluorophenyl)ethanol], the IC50 came out at 3940 nM. Turning to `C[C@H](Nc1nc(Nc2cc(C3CC3)[nH]n2)ncc1C#N)c1ccc(F)cc1` [Example 4, 2-[(5-Cyclopropyl-1H-pyrazol-3-yl)amino]-4-{[(1S)-1-(4-fluorophenyl)ethyl]amino}pyrimidine-5-carbonitrile], the IC50 came to 36 nM.
